Patent EP3325012B1, “CINEOLE-CONTAINING COMPOSITION FOR TREATING NOSE POLYPS” (Maria Clementine Martin Klosterfrau Vertriebsgesellschaft …, priority 2015, dated 2017)
“Also recorded” adds a separate entry of the source.

What was measured:
WIF-1 = conditions: Colon-Ca-Zelllinien; cited from earlier work
beta-Catenin = test: Anti-(active-)beta-catenin immunohistochemistry on polyp single-cell suspensions (chamber slides); type: cell-based, Mensch; conditions: 24 h incubation
Description: Im entzündlichen Infiltrat des Polyposisgewebes ließ sich immunhistochemisch nukleäres beta-Catenin nachweisen.
Es wurde eine Anti-Active-beta-Catenin-Immunhistochemie auf mit dem GSK-3-Inhibitor SB216763 für 24 h inkubierter Polyposis-Einzelzellsuspension (Chamber Slide) durchgeführt.

Polyposis-Primärgewebe = test: Cytokine release from polyposis primary tissue; type: cell-based, Mensch; conditions: incubation of primary tissue

SMILES | Regulation von WIF-1 (WIF-1) | Akkumulation von beta-Catenin im Zytoplasma (beta-Catenin) | Translokation von beta-Catenin in den Zellkern (beta-Catenin) | Ausschüttung von IL-6 (Polyposis-Primärgewebe) | Ausschüttung von IL-8 (Polyposis-Primärgewebe)
CC(=O)Oc1ccccc1C(=O)O [Acetylsalicylsäure] | Hochregulation | – | – | – | –
Cn1cc(C2=C(c3ccc(Cl)cc3Cl)C(=O)NC2=O)c2ccccc21 [SB216763] | – | Akkumulation von beta-Catenin im Zytoplasma; also recorded: deutliche Anreicherung | Translokation von beta-Catenin in den Zellkern | verminderte Ausschüttung | verminderte Ausschüttung
